According to patent publication US6972288B1, “4-amino-quinazoline and quinoline derivatives having an inhibitory effect on signal transduction mediated by tyrosine kinases” (Boehringer Ingelheim Pharma KG, priority 1999, dated 2005):

Columns and labels:
human EGF-R = biological target: T1, human EGF-R (Homo sapiens, UniProt P00533); experiment: Inhibition of EGF-dependent proliferation of F/L-HERc cells (Cell Titer 96 AQueous assay); type: cell-based; conditions: F/L-HERc cells (murine IL-3-dependent line expressing human EGF-R), stimulated with EGF 20 ng/ml, 48 hours at 37° C.
T1 construct: expressed in transfected cells; host or cells: F/L-HERc cells, derived from the murine IL-3-dependent line FDC-P1 ('FDC-PI' [sic]); retroviral vector LXSN, packaging line GP+E86
T1 sequence (P00533 25-1210): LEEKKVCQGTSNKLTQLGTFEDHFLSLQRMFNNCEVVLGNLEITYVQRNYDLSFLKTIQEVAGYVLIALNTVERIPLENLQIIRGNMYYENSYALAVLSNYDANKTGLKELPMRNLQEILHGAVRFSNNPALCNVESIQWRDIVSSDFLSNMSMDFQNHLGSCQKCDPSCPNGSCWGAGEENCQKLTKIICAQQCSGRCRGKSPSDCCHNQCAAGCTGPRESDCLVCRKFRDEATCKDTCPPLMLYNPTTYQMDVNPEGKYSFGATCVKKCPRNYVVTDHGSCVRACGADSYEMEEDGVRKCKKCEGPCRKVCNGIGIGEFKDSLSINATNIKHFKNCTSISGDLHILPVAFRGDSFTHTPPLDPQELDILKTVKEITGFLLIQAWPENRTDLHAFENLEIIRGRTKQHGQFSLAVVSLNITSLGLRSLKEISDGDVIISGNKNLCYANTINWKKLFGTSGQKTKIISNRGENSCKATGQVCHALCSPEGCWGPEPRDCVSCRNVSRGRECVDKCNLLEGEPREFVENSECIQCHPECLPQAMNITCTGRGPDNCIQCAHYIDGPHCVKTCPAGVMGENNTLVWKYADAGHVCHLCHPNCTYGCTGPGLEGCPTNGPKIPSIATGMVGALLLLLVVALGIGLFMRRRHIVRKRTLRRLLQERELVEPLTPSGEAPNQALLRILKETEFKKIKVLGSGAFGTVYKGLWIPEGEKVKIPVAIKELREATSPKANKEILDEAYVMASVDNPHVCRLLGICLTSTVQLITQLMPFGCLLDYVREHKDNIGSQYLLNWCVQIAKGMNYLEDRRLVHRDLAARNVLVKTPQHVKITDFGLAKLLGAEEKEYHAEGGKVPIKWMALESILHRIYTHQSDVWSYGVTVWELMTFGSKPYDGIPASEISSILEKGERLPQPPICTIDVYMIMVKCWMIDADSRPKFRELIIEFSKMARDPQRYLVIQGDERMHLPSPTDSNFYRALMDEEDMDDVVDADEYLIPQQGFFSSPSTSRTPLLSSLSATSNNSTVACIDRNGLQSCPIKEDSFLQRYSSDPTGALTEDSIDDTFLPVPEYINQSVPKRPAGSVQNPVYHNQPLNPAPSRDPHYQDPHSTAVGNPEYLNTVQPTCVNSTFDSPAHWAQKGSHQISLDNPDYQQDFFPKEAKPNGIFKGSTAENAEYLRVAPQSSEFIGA
Text: A cell line of murine origin dependent on interleukin-3 (IL-3) which was genetically modified to express functional human EGF-R was used here. The proliferation of these cells known as F/L-HERc can therefore be stimulated either by murine IL-3 or by EGF (cf. von Rüden, T. et al. in EMBO J. 7, 2749-2756 (1988) and Pierce, J. H. et al. in Science 239. 628-631 (1988)).
The starting material used for the F/L-HERc cells was the cell line FDC-PI, the production of which has been described by Dexter, T. M. et al, in J. Exp. Med. 152, 1036-1047 (1980). alternatively, however, other growth-factor-dependent cells may also be used (cf. for example Pierce, J. H. et al. in Science 239, 628-631 (1988), Shibuya, H. et al. in Cell 70, 57-67 (1992) and alexander, W. S. et al. in EMBO J. 10, 3683-3691 (1991)). For expressing the human EGF-R cDNA (cf. Ullrich, A. et al. in Nature 309, 418-425 (1984)) recombinant retroviruses were used as described by von Rüden, T. et al., EMBO J. 7, 2749-2756 (1988), except that the retroviral vector LXSN (cf. Miller, A. D. et al. in BioTechniques 1, 980-990 (1989)) was used for the expression of the EGF-R cDNA and the line GP+E86 (cf, Markowitz, D, et al. in J. Virol. 62, 1120-1124 (1988)) was used as the packaging cell.
The test was performed as follows: • F/L-HERC cells were cultivated in RPMI/1640 medium (BioWhittaker), supplemented with 10% foetal calf serum (FCS, Boehringer Mannheim). 2 mM glutamine (BioWhittaker), standard antibiotics and 20 ng/ml of human EGF (Promega), at 37° C. and 5% CO2. In order to investigate the inhibitory activity of the compounds according to the invention, 1.5×10^4 cells per well were cultivated in triplicate in 96-well plates in the above medium ([…]), the cell proliferation being stimulated with either EGF (20 ng/ml) or murine IL-3. The IL-3 used was obtained from culture supernatants of the cell line X63/0 mIL-3 (cf. Karasuyama, 4. et al. in Eur. J. Immunol. 18, 97-104 (19881). The compounds according to the invention were dissolved in 100% dimethylsulphoxide (DMSO) and added to the cultures in various dilutions, the maximum DMSO concentration being 1%. The cultures were incubated for 48 hours at 37° C.
In order to determine the inhibitory activity of the compounds according to the invention the relative cell number was measured in O.D. units using the Cell Titer 96™ AQueous Non-Radioactive Cell Proliferation Assay (Promega). The relative cell number was calculated as a percentage of the control (F/LHERc cells without inhibitor) and the concentration of active substance which inhibits the proliferation of the cells by 50% (IC50) was derived therefrom.

Structure (SMILES)	IC50 (human EGF-R)	melting point
CCOC(=O)CN(C)CC=CC(=O)Nc1ccc2ncnc(Nc3cccc(Br)c3)c2c1 [Example 2, 4-[(3-Bromophenyl)amino]-6-[(4-{N-[(ethoxycarbonyl)methyl]-N-methylamino}-1-oxo-2-buten-1-yl)-amino]-quinazoline]	5.2 nM	182 to 183 °C
C=CC(=O)Nc1cc2c(Nc3cccc(Br)c3)ncnc2cc1OCCCN1CCN(CC(=O)OCC)CC1 [Example 1, 4-[(3-Bromophenyl)amino]-7-(3-{4-[(ethoxycarbonyl)methyl]-piperazin-1-yl)propyloxy)-6-[(vinylcarbonyl)amino]-quinazoline]	2.6 nM	80 to 85 °C
CCOC(=O)CN(CC=CC(=O)Nc1cc2c(Nc3ccc(F)c(Cl)c3)ncnc2cc1OCC1CC1)CCOC(C)=O [Example 11, 4-[(3-chloro-4-fluorophenyl)amino]-6-[(4-(N-[(ethoxycarbonyl)-methyl]-N-[2-(methylcarbonyloxy)ethyl]amino]-1-oxo-2-buten-1-yl)amino]-7-cyclopropylmethoxy-quinazoline]	74 nM	90 to 92 °C
